Experimental data from PMC11882969 (Nature Communications, 2025).

How the values were obtained:
[1] = target: T1, CB1 (rCB1) (Rattus norvegicus, UniProt P20272); assay: Radioligand competition binding, [3H]-CP-55,940, rat brain membranes; settings: for pKi [95% CI]: rCB1; for Ki: read-out: Ki [95% CI], rCB1, [3H]-CP-55,940
[2] = target: T1, CB1 (rCB1); assay: Single-point radioligand displacement screen; type: binding; settings: for % 1H-CP-55,940 displacement (mean) from single point screen: 10 µM, 1 µM or 300 nM by cell colour (not visible); for rep1_displacement / rep2_displacement / rep3_displacement: Figure 1c source data; for rep1_displacement: replicate 1; for rep2_displacement: replicate 2; for rep3_displacement: replicate 3

T1 sequence (P20272 whole entry): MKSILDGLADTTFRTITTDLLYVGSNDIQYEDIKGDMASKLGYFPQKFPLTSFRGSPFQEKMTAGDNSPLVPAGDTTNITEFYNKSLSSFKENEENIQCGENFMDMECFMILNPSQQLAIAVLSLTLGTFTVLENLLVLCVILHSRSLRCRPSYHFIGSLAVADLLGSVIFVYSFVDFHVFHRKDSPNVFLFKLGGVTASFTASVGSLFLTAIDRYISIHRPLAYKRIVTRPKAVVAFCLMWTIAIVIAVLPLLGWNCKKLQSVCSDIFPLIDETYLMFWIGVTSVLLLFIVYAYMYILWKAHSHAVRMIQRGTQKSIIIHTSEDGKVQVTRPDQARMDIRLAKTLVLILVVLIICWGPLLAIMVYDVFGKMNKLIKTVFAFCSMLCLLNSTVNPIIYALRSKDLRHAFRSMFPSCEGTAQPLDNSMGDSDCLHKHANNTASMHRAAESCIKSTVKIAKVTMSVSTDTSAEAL

COC(=O)[C@@H](c1cccs1)N(C)C(=O)c1cc(C)n(-c2cccc(C(F)(F)F)c2)n1 [‘6000]
pKi [95% CI] [1]: 5.8 [5.7 – 6.0]
Ki [1]: 1460 nM

CC(=O)C(C)(NC(=O)c1cc(C)n(-c2cccc(C(F)(F)F)c2)n1)c1cccs1 (centres unmarked) [‘4156]
pKi [95% CI] [1]: 7.9 [7.5 – 8.2]
Ki [1]: 13.5 nM

COC(=O)C(c1ccco1)N(C)C(=O)c1cc(C)n(-c2cccc(C(F)(F)F)c2)n1 (centres unmarked) [‘6425]
pKi [95% CI] [1]: 6.0 [5.8 – 6.2]
Ki [1]: 934 nM

CCCCCCC(C)(C)c1cc(O)c2c(c1)OC(C)(C)C1CCC(=O)CC21 (centres unmarked) [Nabilone, reference compound]
pKi [95% CI] [1]: 8.6 [8.4 – 8.9]
Ki [1]: 2.3 nM

COC(=O)[C@H](c1cccs1)N(C)C(=O)c1cc(C)n(-c2cccc(C(F)(F)F)c2)n1 [‘1066]
pKi [95% CI] [1]: 5.8 [5.4 – 6.1]
Ki [1]: 1720 nM

COC(=O)C(NC(=O)c1cc(-c2ccccc2)n(-c2cccc(C(F)(F)F)c2)n1)c1cccs1 (centres unmarked) [‘8079]
pKi [95% CI] [1]: 7.7 [7.6 – 7.9]
Ki [1]: 18.5 nM

COC(=O)C(NC(=O)c1cc(C)n(-c2cccc(F)c2)n1)c1ccc2c(c1)CCO2 (centres unmarked) [compound 12208]
% 1H-CP-55,940 displacement (mean) from single point screen [2]: -5.83%

Cn1cc2c(n1)CCCC2c1nc(C2(c3cccc(C(F)(F)F)c3)CC2)no1 (centres unmarked) [compound 18525]
% 1H-CP-55,940 displacement (mean) from single point screen [2]: 41.38%
rep1_displacement [2]: 39.7
rep2_displacement [2]: 46.2
rep3_displacement [2]: 38.2

COC(=O)C(OC(=O)c1cc(C)n(-c2cccc(Cl)c2)n1)c1ccsc1 (centres unmarked) [compound 75729]
% 1H-CP-55,940 displacement (mean) from single point screen [2]: 29.65%
rep1_displacement [2]: 32.1
rep2_displacement [2]: 28
rep3_displacement [2]: 28.8

CN(C)c1cc(-c2nc(Cc3ccc4c(c3)OCCO4)no2)c2ccccc2n1 [compound 85562]
% 1H-CP-55,940 displacement (mean) from single point screen [2]: 44.88%
rep1_displacement [2]: 45.9
rep2_displacement [2]: 44.2
rep3_displacement [2]: 44.5

Cn1ncc2c(N3CCC(COCc4ccccc4)C3)nc(Cl)nc21 (centres unmarked) [compound 66978]
% 1H-CP-55,940 displacement (mean) from single point screen [2]: -5.01%
rep1_displacement [2]: 10
rep2_displacement [2]: -21.7
rep3_displacement [2]: -3.3

Cc1nn(Cc2ccccc2Cl)c(C)c1C(=O)OCC1CSc2ccccc2O1 (centres unmarked) [7800_28]
% 1H-CP-55,940 displacement (mean) from single point screen [2]: 55.46%

C=CCn1c(SC(C)COC)nc2cc(-c3ccccc3)sc2c1=O (centres unmarked) [compound 50746]
% 1H-CP-55,940 displacement (mean) from single point screen [2]: 26.93%
rep1_displacement [2]: 27.8
rep2_displacement [2]: 26.8
rep3_displacement [2]: 26.1

Cc1cc(C(=O)N2CC3(CCC3)[C@@H]3COC[C@@H]32)nn1-c1cccc(C(F)(F)F)c1 [10_14]
% 1H-CP-55,940 displacement (mean) from single point screen [2]: 91.30%

c1ccc(-c2nc(C3CC3)sc2-c2nnc(-c3ccc4c(c3)OCO4)o2)cc1 [7019_32]
% 1H-CP-55,940 displacement (mean) from single point screen [2]: 39.89%

Cc1cc(C(=O)NC(C)(c2ccccc2)c2ccco2)nn1-c1cccc(C(F)(F)F)c1 (centres unmarked) [‘5806]
pKi [95% CI] [1]: 8.1 [7.7 – 8.5]
fold improvement in CB1R affinity ([1]; vs parent hit or analog without the change): ~15 fold

COC(=O)C(NC(=O)c1cc(C)n(-c2ccccc2)n1)c1cccnc1 (centres unmarked) [compound 03453]
% 1H-CP-55,940 displacement (mean) from single point screen [2]: -5.45%

Cc1c(C(=O)N(C)CC2COc3ccccc3O2)cnn1-c1ccccc1 (centres unmarked) [compound 4148]
% 1H-CP-55,940 displacement (mean) from single point screen [2]: 11.41%

COC(=O)[C@H](C)NC(=O)c1cc(C)n(-c2cccc(F)c2)n1 [1486_11]
% 1H-CP-55,940 displacement (mean) from single point screen [2]: -7.46%

Cc1c(C(=O)OCC2CSc3ccccc3O2)cnn1Cc1cccc(C(F)(F)F)c1 (centres unmarked) [7800_25]
% 1H-CP-55,940 displacement (mean) from single point screen [2]: 58.49%

CC(C)(C)c1c(C(=O)OCC2CSc3ccccc3O2)cnn1Cc1ccccc1 (centres unmarked) [7800_22]
% 1H-CP-55,940 displacement (mean) from single point screen [2]: 73.02%

Cc1c(C(=O)NCC2CSc3ccccc3O2)nnn1Cc1ccc(F)cc1 (centres unmarked) [compound 22139]
% 1H-CP-55,940 displacement (mean) from single point screen [2]: 13.03%

Cc1cc(C(=O)N2CC3(CCC3)C2c2ccco2)nn1-c1cccc(C(F)(F)F)c1 (centres unmarked) [10_10]
% 1H-CP-55,940 displacement (mean) from single point screen [2]: 94.41%

COC(=O)c1nc(N(C)CCOc2ccc(Br)cc2)sc1C [compound 22875]
% 1H-CP-55,940 displacement (mean) from single point screen [2]: 27.03%
rep1_displacement [2]: 25.7
rep2_displacement [2]: 29.1
rep3_displacement [2]: 26.3

CN(CCOc1ccc(Br)cc1)c1ncnc(-c2ccccc2)n1 [compound 55901]
% 1H-CP-55,940 displacement (mean) from single point screen [2]: 23.61%
rep1_displacement [2]: 24.5
rep2_displacement [2]: 26.2
rep3_displacement [2]: 20.1

C[C@@H](COC(=O)c1nn(C)c(=O)c2ccccc12)Oc1ccc(Cl)cc1 [0450_14]
% 1H-CP-55,940 displacement (mean) from single point screen [2]: 28.77%

O=C(NCC1CSc2ccccc2O1)c1cn(Cc2ccccc2)nn1 (centres unmarked) [compound 78184]
% 1H-CP-55,940 displacement (mean) from single point screen [2]: 28.43%

Cc1c(C(=O)OCC2CSc3ccccc3S2)cnn1Cc1ccccc1 (centres unmarked) [7800_26]
% 1H-CP-55,940 displacement (mean) from single point screen [2]: 69.84%

COC(=O)[C@@H](NC(=O)c1cc(C)n(-c2cccc(Cl)c2)n1)c1ccc(OC)cc1 [compound 69543]
% 1H-CP-55,940 displacement (mean) from single point screen [2]: 10.83%

COC(=O)CC(NC(=O)c1cc(C)n(-c2ccc(OC)cc2)n1)c1cccs1 (centres unmarked) [compound 90711]
% 1H-CP-55,940 displacement (mean) from single point screen [2]: 7.24%

CC1OCCC12CN(C(=O)c1oc3ccccc3c1COc1ccccc1)CCO2 (centres unmarked) [compound 70889]
% 1H-CP-55,940 displacement (mean) from single point screen [2]: 46.62%
rep1_displacement [2]: 47.8
rep2_displacement [2]: 46.3
rep3_displacement [2]: 45.8

O=C(c1cn(-c2cccc(C(F)(F)F)c2)nn1)N1CC2(CCC2)C1C1CCCO1 (centres unmarked) [10_23]
% 1H-CP-55,940 displacement (mean) from single point screen [2]: 25.67%

COC(=O)C(NC(=O)c1cc(C)n(-c2ccccc2)n1)c1cccs1 (centres unmarked) [compound 59643]
% 1H-CP-55,940 displacement (mean) from single point screen [2]: 4.63%

Cc1cc(C(=O)Nc2ccnn2-c2cccc(Cl)c2)nn1[C@H](C)C1CC1 [‘7902]
% 1H-CP-55,940 displacement (mean) from single point screen [2]: 57.08%
rep1_displacement [2]: 57
rep2_displacement [2]: 57.3
rep3_displacement [2]: 57
% radioligand displacement [S.D] ([2]; single point at 10 µM, three replicates): 57.1% [0.02]

N#CCCn1ncc(C(=O)OCC2CSc3ccccc3O2)c1-c1ccccc1 (centres unmarked) [compound 0372]
% 1H-CP-55,940 displacement (mean) from single point screen [2]: 41.18%

O=C(OCc1nc2ccccc2o1)c1cnn(Cc2ccccc2Cl)c1 [compound 3652]
% 1H-CP-55,940 displacement (mean) from single point screen [2]: 32.00%
